Source: ChEMBL document CHEMBL5108044, “Discovery of a Novel Potent STAT3 Inhibitor HP590 with Dual p-Tyr705/Ser727 Inhibitory Activity for Gastric Cancer Treatment” (J Med Chem, 2022)
Active and inactive are the calls of the source. The calls are words filed in the database; no cut-off is given here.

What was measured:
[1] = biological target: Tyrosine-protein kinase JAK1 (Homo sapiens, UniProt P23458); assay: Inhibition of JAK1 (unknown origin)
[2] = biological target: T1, Signal transducer and activator of transcription 3 (Homo sapiens, UniProt P40763); assay: Inhibition of STAT3 phosphorylation at Tyr705 residue in human MKN-45 cells upto 40 nM by Western blotting analysis; assay type: cell-based; details: time <= 24.0 hrs, TDE = time-dependent effect
AGS [3] = assay: Induction of apoptosis in human AGS cells assessed as necrotic cells 5 nM incubated for 48 hrs by FITC-annexin V/propidium iodide staining based flow cytometry (reference value: 2.70%); assay type: functional
MKN-45 [4] = assay: Induction of apoptosis in human MKN-45 cells assessed as late apoptic cells 10 nM incubated for 48 hrs by FITC-annexin V/propidium iodide staining based flow cytometry (reference value: 17.9%); assay type: functional
[5] = biological target: T2, Mitogen-activated protein kinase 13 (Homo sapiens, UniProt O15264); assay: Inhibition of p38delta (unknown origin)
T2 sequence (O15264 whole entry): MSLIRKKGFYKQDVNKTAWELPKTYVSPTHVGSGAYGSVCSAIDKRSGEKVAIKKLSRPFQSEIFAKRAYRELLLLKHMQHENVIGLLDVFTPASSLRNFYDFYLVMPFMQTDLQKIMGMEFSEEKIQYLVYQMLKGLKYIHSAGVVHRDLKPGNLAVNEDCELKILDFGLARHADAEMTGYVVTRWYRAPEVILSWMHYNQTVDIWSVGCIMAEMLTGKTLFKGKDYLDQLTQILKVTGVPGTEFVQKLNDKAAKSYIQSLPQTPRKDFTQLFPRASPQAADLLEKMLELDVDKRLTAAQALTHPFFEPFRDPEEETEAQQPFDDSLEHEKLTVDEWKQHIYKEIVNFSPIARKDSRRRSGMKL

MGC-803 [6] = assay: Antiproliferative activity against human MGC-803 cells assessed as reduction in cell viability incubated for 72 hrs by MTS assay; assay type: functional, cell-based; details: MGC-803, 72 h
MKN-45 [7] = assay: In vivo inhibition of STAT3 phosphorylation at Tyr705 residue in human MKN-45 cells xenografted in BALB/c nude mouse at 25 to 50 mg/kg, po qd administered for 5 weeks by immunohistochemical analysis; assay type: functional, organism-based; details: dose 25-50 mg/kg
[8] = Toxicity in […] mouse xenografted with human MKN-45 cells assessed as heart damage at 25 to 50 mg/kg, po qd administered for 5 weeks by H and E staining based analysis; assay type: organism-based; details: in vivo, 840 h, dose 25-50 mg/kg
[9] = Clearance in ICR mouse plasma at 1 mg/kg, iv measured up to 24 hrs by LC-MS/MS analysis; assay type: ADME, organism-based
MKN-45 [10] = assay: Induction of apoptosis in human MKN-45 cells assessed as early apoptic cells 20 nM incubated for 48 hrs by FITC-annexin V/propidium iodide staining based flow cytometry (reference value: 2.79%); assay type: functional
MKN-45 [11] = assay: Antiproliferative activity against human MKN-45 cells assessed as reduction in cell viability incubated for 72 hrs by MTS assay; assay type: functional, cell-based; details: MKN-45, 72 h
MKN-45 [12] = assay: Potency index, ratio of IC50 for BBI608 to IC50 for test compound for antiproliferative activity against human MKN-45 cells assessed as reduction in cell viability incubated for 72 hrs by MTS assay; assay type: functional
[13] = biological target: T1, Signal transducer and activator of transcription 3; assay: Inhibition of STAT3 in human MKN-45 cells assessed as downregulation of c-Myc expression incubated up to 24 hrs by western blot analysis; assay type: cell-based; details: dose <= 40.0 nM, DDE = dose-dependent effect
[14] = biological target: T1, Signal transducer and activator of transcription 3; assay: Inhibition of STAT3 phosphorylation at Tyr705 residue in human AGS cells upto 40 nM incubated upto 24 hrs by Western blotting analysis; assay type: cell-based
[15] = biological target: T1, Signal transducer and activator of transcription 3; assay: Inhibition of STAT3 phosphorylation at Ser727 residue in human MKN-45 cells upto 40 nM by Western blotting analysis; assay type: cell-based; details: time <= 24.0 hrs, TDE = time-dependent effect
MGC-803 [16] = assay: Inhibition of colony formation in human MGC-803 cells assessed as reduction in number of colonies incubated for 5 to 7 days by crystal violet staining based assay; assay type: functional, cell-based; details: dose <= 20.0 nM, time 5-7 day, DDE = dose-dependent effect
AGS [17] = assay: Induction of apoptosis in human AGS cells assessed as necrotic cells 20 nM incubated for 48 hrs by FITC-annexin V/propidium iodide staining based flow cytometry (reference value: 2.70%); assay type: functional
[18] = biological target: T1, Signal transducer and activator of transcription 3; assay: Inhibition of STAT3 in human GES1cells assessed as downregulation of c-myc expression at 10 to 40 nM incubated for 24 hrs by RT-PCR analysis; assay type: cell-based; details: GES1, dose 10-40 nM
MKN-45 [19] = assay: In vivo inhibition of STAT3 phosphorylation at Ser727 residue in human MKN-45 cells xenografted in BALB/c nude mouse at 25 to 50 mg/kg, po qd administered for 5 weeks by western blot analysis; assay type: functional, organism-based; details: dose 25-50 mg/kg
AGS [20] = assay: Induction of apoptosis in human AGS cells assessed as viable cells at 10 nM incubated for 48 hrs by FITC-annexin V/propidium iodide staining based flow cytometry (reference value: 87.2%); assay type: functional; details: read-out: Activity
[21] = biological target: T1, Signal transducer and activator of transcription 3; assay: Binding affinity to human STAT3 transfected in HEK293T cells assessed as change in melting temperature at 5 uM by thermal shift assay; assay type: cell-based
MGC-803 [22] = assay: Potency index, ratio of IC50 for BBI608 to IC50 for test compound for antiproliferative activity against human MGC-803 cells assessed as reduction in cell viability incubated for 72 hrs by MTS assay; assay type: functional
[23] = biological target: T1, Signal transducer and activator of transcription 3; assay: Inhibition of STAT3 in human AGS cells assessed as downregulation of c-Myc expression incubated up to 24 hrs by western blot analysis; assay type: cell-based; details: dose <= 40.0 nM, DDE = dose-dependent effect
[24] = Toxicity in […] mouse xenografted with human MKN-45 cells assessed as kidney damage at 25 to 50 mg/kg, po qd administered for 5 weeks by H and E staining based analysis; assay type: organism-based; details: in vivo, 840 h, dose 25-50 mg/kg
MKN-45 [25] = assay: In vivo inhibition of STAT3 in human MKN-45 cells xenografted in BALB/c nude mouse assessed as reduction in STAT3 gene expression at 25 to 50 mg/kg, po qd administered for 5 weeks by Western blot analysis; assay type: functional, organism-based; details: dose 25-50 mg/kg
MKN-45 [26] = assay: Inhibition of mitochondrial respiration in human MKN-45 cells assessed as maximal oxygen consumption rate at 1 to 100 nM incubated for 1 hr by Seahorse XF24 extracellular flux analyzer; assay type: functional, cell-based; details: dose 1-100 nM
MKN-45 [27] = assay: Inhibition of colony formation in STAT3 knockdown human MKN-45 cells assessed as reduction in number of colonies incubated for 5 to 7 days by crystal violet staining based assay; assay type: functional, cell-based; details: time 5-7 day
MKN-45 [28] = assay: Inhibition of mitochondrial respiration in human MKN-45 cells assessed as oxygen consumption rate incubated for 1 hr by Seahorse XF24 extracellular flux analyzer; assay type: functional, cell-based; details: dose 1-100 nM, DDE = dose-dependent effect
[29] = biological target: T1, Signal transducer and activator of transcription 3; assay: Inhibition of STAT3 in human AGS cells assessed as downregulation of cyclin D1 expression at 10 to 40 nM incubated for 24 hrs by RT-PCR analysis; assay type: cell-based; details: dose 10-40 nM
MKN-45 [30] = assay: Induction of apoptosis in human MKN-45 cells assessed as viable cells at 10 nM incubated for 48 hrs by FITC-annexin V/propidium iodide staining based flow cytometry (reference value: 68%); assay type: functional; details: read-out: Activity

T1 sequence (P40763 whole entry): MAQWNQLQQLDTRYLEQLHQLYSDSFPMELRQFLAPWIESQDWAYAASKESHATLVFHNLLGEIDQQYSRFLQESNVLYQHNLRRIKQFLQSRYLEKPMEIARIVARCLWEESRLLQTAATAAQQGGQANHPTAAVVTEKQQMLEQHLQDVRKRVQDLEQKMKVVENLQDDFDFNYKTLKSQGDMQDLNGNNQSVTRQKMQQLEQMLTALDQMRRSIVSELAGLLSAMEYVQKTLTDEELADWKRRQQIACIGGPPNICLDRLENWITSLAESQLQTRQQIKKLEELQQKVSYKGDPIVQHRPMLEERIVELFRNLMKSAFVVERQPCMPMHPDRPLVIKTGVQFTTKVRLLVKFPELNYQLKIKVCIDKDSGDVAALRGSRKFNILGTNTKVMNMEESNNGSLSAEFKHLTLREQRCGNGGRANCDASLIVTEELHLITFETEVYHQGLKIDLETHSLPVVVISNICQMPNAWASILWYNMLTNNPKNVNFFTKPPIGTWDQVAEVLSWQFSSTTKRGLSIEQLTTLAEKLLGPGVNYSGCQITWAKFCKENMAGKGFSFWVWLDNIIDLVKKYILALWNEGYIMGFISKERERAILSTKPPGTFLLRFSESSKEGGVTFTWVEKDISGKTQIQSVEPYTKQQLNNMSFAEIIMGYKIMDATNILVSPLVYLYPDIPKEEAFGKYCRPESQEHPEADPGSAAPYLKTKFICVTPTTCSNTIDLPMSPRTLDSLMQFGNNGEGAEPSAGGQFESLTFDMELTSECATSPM
Tyrosine-protein kinase JAK1, sequence (P23458 whole entry): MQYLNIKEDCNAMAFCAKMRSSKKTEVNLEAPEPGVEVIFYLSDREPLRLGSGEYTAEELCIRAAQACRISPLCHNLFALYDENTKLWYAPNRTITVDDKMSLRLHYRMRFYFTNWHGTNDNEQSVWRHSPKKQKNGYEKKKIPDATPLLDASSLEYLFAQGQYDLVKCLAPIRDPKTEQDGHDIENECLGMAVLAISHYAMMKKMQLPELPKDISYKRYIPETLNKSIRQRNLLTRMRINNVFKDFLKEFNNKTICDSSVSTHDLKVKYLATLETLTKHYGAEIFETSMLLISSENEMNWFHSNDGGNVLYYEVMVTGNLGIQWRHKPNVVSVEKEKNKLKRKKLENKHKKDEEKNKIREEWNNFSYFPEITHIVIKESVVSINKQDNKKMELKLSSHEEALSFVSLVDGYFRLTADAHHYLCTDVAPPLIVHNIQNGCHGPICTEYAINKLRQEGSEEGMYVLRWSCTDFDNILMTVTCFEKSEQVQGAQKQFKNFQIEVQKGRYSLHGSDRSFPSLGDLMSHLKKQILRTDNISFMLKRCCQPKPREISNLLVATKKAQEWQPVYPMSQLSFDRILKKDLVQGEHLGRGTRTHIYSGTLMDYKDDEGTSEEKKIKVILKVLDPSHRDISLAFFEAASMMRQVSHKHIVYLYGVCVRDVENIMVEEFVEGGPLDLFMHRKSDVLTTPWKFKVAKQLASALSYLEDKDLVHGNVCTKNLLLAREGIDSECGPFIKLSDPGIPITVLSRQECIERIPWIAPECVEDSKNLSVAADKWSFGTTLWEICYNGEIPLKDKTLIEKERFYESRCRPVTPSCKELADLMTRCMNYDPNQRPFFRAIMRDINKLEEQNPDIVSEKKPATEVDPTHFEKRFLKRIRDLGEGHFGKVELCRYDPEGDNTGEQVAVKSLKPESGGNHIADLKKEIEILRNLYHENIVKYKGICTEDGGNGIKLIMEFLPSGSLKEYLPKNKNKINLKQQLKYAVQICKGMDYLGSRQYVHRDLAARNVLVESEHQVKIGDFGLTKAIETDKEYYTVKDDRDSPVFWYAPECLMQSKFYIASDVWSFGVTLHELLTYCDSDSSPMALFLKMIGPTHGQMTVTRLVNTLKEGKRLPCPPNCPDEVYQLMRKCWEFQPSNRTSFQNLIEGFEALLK

In the case of O=C(c1ccc(-c2noc(-c3ccc(C(F)(F)F)cc3)n2)cc1)N1CCN(Cc2ccc(OCC(F)(F)F)cc2)CC1, the IC50 [1] is reported as over 10000 nM, the inhibition [2] is reported as “Tde” and the Activity (AGS [3]) is reported as 3.96%. For the same compound, the Activity (MKN-45 [4]) was 19.6%, the IC50 [5] was over 10000 nM and the IC50 (MGC-803 [6]) was 8.7 nM. The inhibition (MKN-45 [7]) was “Active”, the Activity [8] was “Non-Toxic” and the clearance [9] was 7.33 mL/min/kg. For the same compound, the Activity (MKN-45 [10]) was 5.06%, the IC50 (MKN-45 [11]) was 9.3 nM and the “Ratio IC50” value (MKN-45 [12]) was 30. The inhibition [13] was “Dde”, the inhibition [14] was 100% and the inhibition [15] was “Tde”. The inhibition (MGC-803 [16]) was “Dde”, the Activity (AGS [17]) was 0.8% and the inhibition [18] was “Active”. The inhibition (MKN-45 [19]) was “Active”, the viability at 0.01 µM (AGS [20]) was 82.3% and the Activity [21] was “Active”. The “Ratio IC50” value (MGC-803 [22]) was 30, the inhibition [23] was “Dde” and the Activity [24] was “Non-Toxic”. The inhibition (MKN-45 [25]) was “Active”, the inhibition (MKN-45 [26]) was “Active” and the inhibition (MKN-45 [27]) was “Active”. For the same compound, the inhibition (MKN-45 [28]) was “Dde”, the inhibition [29] was “Active” and the viability at 0.01 µM (MKN-45 [30]) was 68.5%.
